Key:
Format in all cases: cell-based
Z138 cells = assay: MTT cell proliferation assay, Z138 cells; settings: Homo sapiens, Z-138, incubation approximately 64-72 hours
Method: (§1) The MTT cell proliferation assay was used to study the cytotoxic properties of the compounds. The assay was performed according to the method described by Roche Molecular Biochemicals, with minor modifications. The assay is based on the cleavage of the tetrazolium salt, MTT, in the presence of an electron-coupling reagent. The water-insoluble formazan salt produced must be solubilized in an additional step. Cells grown in a 96-well tissue culture plate were incubated with the MTT solution for approximately 4 hours. After this incubation period, a water-insoluble formazan dye formed. After solubilization, the formazan dye was quantitated using a scanning multi-well spectrophotometer (ELISA reader). […] The cells were seeded at 5,000-10,000 cells in each well of 96-well plate in 100 μL of fresh culture medium and were allowed to attach overnight. The stock solutions of the compounds were diluted in 100 μL cell culture medium to obtain eight concentrations of each test compound, ranging from 1 nM to 30 μM. […] All optical densities were measured at 490 nm using a Vmax Kinetic Microplate Reader (Molecular Devices). In most cases, the assay was performed in duplicate and the results were presented as a mean percent inhibition to the negative control±SE. The following formula was used to calculate the percent of inhibition. Inhibition (%)=(1−(ODo/OD))×100.
(§2) The compounds were tested against MS751, Z138 and 3T3 cells. The MS751 cell line is derived from a metastasis to lymph node of human cervix from a patient diagnosed with squameous cell carcinoma of the cervix. The […] cell line is a mature B-cell acute lymphoblastic leukemia cell line derived from a patient with chronic lymphocytic leukemia. 3T3 cells are standard fibroblast cells; they were originally isolated from Swiss mouse embryo tissue.

3T3 cells = assay: MTT cell proliferation assay, 3T3 cells; settings: Mus musculus, NIH3T3; 3T3 fibroblast cells; incubation approximately 64-72 hours
Method: as §1, §2

MS751 cells = assay: MTT cell proliferation assay, MS751 cells; settings: Homo sapiens, incubation approximately 64-72 hours
Method: as §1, §2

CC(=O)c1ccc(-c2ccc(OCCNC(=O)/C=C/c3cccnc3)c(Cl)c2)s1 [Compound 300, (E)-N-(2-(4-(5-acetylthiophen-2-yl)-2-chlorophenoxy)ethyl)-3-(pyridin-3-yl)acrylamide]
IC50 (Z138 cells): 0.1 to 5 µM | IC50 (3T3 cells): > 10 µM | IC50 (MS751 cells): 0.1 to 5 µM

CC(O)c1ccc(-c2ccc(OCCNC(=O)/C=C/c3cccnc3)c(Cl)c2)s1 (stereo not drawn) [Compound 301, (E)-N-(2-(2-chloro-4-(5-(1-hydroxyethyl)thiophen-2-yl)phenoxy)ethyl)-3-(pyridin-3-yl) acrylamide]
IC50 (Z138 cells): 0.1 to 5 µM | IC50 (3T3 cells): 0.1 to 5 µM | IC50 (MS751 cells): < 0.1 µM

CC(=O)c1ccc(-c2cccc(OCCNC(=O)/C=C/c3cccnc3)c2Cl)s1 [Compound 302, (E)-N-(2-(3-(5-acetylthiophen-2-yl)-2-chlorophenoxy)ethyl)-3-(pyridin-3-yl) acrylamide]
IC50 (Z138 cells): 0.1 to 5 µM | IC50 (3T3 cells): 0.1 to 5 µM | IC50 (MS751 cells): < 0.1 µM

CC(=O)c1ccc(-c2ccc(Cl)c(OCCNC(=O)/C=C/c3cccnc3)c2)s1 [Compound 303, (E)-N-(2-(5-(5-acetylthiophen-2-yl)-2-chlorophenoxy)ethyl)-3-(pyridin-3-yl)acrylamide]
IC50 (Z138 cells): 0.1 to 5 µM | IC50 (3T3 cells): > 10 µM | IC50 (MS751 cells): 0.1 to 5 µM

CC(=O)c1ccc(-c2ccc(OCCNC(=O)/C=C/c3cccnc3Cl)c(Cl)c2)s1 [Compound 304, (E)-N-(2-(4-(5-acetylthiophen-2-yl)-2-chlorophenoxy)ethyl)-3-(2-chloropyridin-3-yl) acrylamide]
IC50 (Z138 cells): > 10 µM | IC50 (3T3 cells): > 10 µM | IC50 (MS751 cells): 5 to 10 µM

CC(=O)c1ccc(-c2ccc(OCCNC(=O)/C=C/c3cccnc3C)c(Cl)c2)s1 [Compound 305, (E)-N-(2-(4-(5-acetylthiophen-2-yl)-2-chlorophenoxy)ethyl)-3-(2-methylpyridin-3-yl) acrylamide]
IC50 (Z138 cells): > 10 µM | IC50 (3T3 cells): > 10 µM | IC50 (MS751 cells): > 10 µM

CC(=O)c1ccc(-c2ccc(OCCNC(=O)CCc3cccnc3)c(Cl)c2)s1 [Compound 306, N-(2-(4-(5-acetylthiophen-2-yl)-2-chlorophenoxy)ethyl)-3-(pyridin-3-yl)propanamide]
IC50 (Z138 cells): > 10 µM | IC50 (3T3 cells): > 10 µM | IC50 (MS751 cells): 5 to 10 µM

CC(=O)c1ccc(-c2ccc(OCCNC(=O)/C=C/c3c(C)noc3C)c(Cl)c2)s1 [Compound 307, (E)-N-(2-(4-(5-acetylthiophen-2-yl)-2-chlorophenoxy)ethyl)-3-(3,5-dimethylisoxazol-4-yl)acrylamide]
IC50 (Z138 cells): > 10 µM | IC50 (3T3 cells): > 10 µM | IC50 (MS751 cells): > 10 µM

CC(=O)c1ccc(-c2ccc(OCCNC(=O)/C=C/c3ccc(N)nc3)c(Cl)c2)s1 [Compound 308, (E)-N-(2-(4-(5-acetylthiophen-2-yl)-2-chlorophenoxy)ethyl)-3-(6-aminopyridin-3-yl) acrylamide]
IC50 (Z138 cells): 0.1 to 5 µM | IC50 (3T3 cells): > 10 µM | IC50 (MS751 cells): 0.1 to 5 µM

CC(=O)c1ccc(-c2ccc(OCCNC(=O)C#Cc3cccnc3)c(Cl)c2)s1 [Compound 309, N-(2-(4-(5-acetylthiophen-2-yl)-2-chlorophenoxy)ethyl)-3-(pyridin-3-yl)propiolamide]
IC50 (Z138 cells): > 10 µM | IC50 (3T3 cells): > 10 µM | IC50 (MS751 cells): > 10 µM

CC(=O)c1ccc(-c2ccc(OCCNC(=O)/C=C/c3cccnn3)c(Cl)c2)s1 [Compound 310, (E)-N-(2-(4-(5-acetylthiophen-2-yl)-2-chlorophenoxy)ethyl)-3-(pyridazin-3-yl)acrylamide]
IC50 (Z138 cells): > 10 µM | IC50 (3T3 cells): > 10 µM | IC50 (MS751 cells): > 10 µM

CC(=O)c1ccc(-c2ccc(OCCN(C)C(=O)/C=C/c3cccnc3)c(Cl)c2)s1 [Compound 311, (E)-N-(2-(4-(5-acetylthiophen-2-yl)-2-chlorophenoxy)ethyl)-N-methyl-3-(pyridin-3-yl)acrylamide]
IC50 (Z138 cells): 0.1 to 5 µM | IC50 (3T3 cells): 0.1 to 5 µM | IC50 (MS751 cells): 0.1 to 5 µM

CC(=O)c1ccc(-c2ccccc2OCCNC(=O)/C=C/c2cccnc2)s1 [Compound 312, (E)-N-(2-(2-(5-acetylthiophen-2-yl)phenoxy)ethyl)-3-(pyridin-3-yl)acrylamide]
IC50 (Z138 cells): 0.1 to 5 µM | IC50 (3T3 cells): 0.1 to 5 µM | IC50 (MS751 cells): 0.1 to 5 µM

CN1CCN(C(=O)c2ccc(-c3ccc(OCCNC(=O)/C=C/c4ccc(N)nc4)c(Cl)c3)cc2)CC1 [Compound 313, (E)-3-(6-aminopyridin-3-yl)-N-(2-(3-chloro-4′-(4-methylpiperazine-1-carbonyl)biphenyl-4-yloxy)ethyl)acrylamide]
IC50 (Z138 cells): < 0.1 µM | IC50 (3T3 cells): 0.1 to 5 µM | IC50 (MS751 cells): < 0.1 µM

Cc1cc(-c2ccc(OCCNC(=O)/C=C/c3ccc(N)nc3)c(Cl)c2)ccc1C(=O)N1CCOCC1 [Compound 314, (E)-3-(6-aminopyridin-3-yl)-N-(2-(3-chloro-3′-methyl-4′-(morpholine-4-carbonyl)biphenyl-4-yloxy)ethyl)acrylamide]
IC50 (Z138 cells): < 0.1 µM | IC50 (3T3 cells): 0.1 to 5 µM | IC50 (MS751 cells): < 0.1 µM

C=C(C)c1ccc(-c2ccc(OCCNC(=O)/C=C/c3cccnc3)c(Cl)c2)s1 [Compound 315, (E)-N-(2-(2-chloro-4-(5-(prop-1-en-2-yl)thiophen-2-yl)phenoxy)ethyl)-3-(pyridin-3-yl)acrylamide]
IC50 (Z138 cells): 0.1 to 5 µM | IC50 (3T3 cells): 5 to 10 µM | IC50 (MS751 cells): 5 to 10 µM

Nc1ccc(/C=C/C(=O)NCCOc2ccc(-c3ccc(C(=O)N4CCOCC4)cc3)cc2Cl)cn1 [Compound 316, (E)-3-(6-aminopyridin-3-yl)-N-(2-(3-chloro-4′-(morpholine-4-carbonyl)biphenyl-4-yloxy)ethyl)acrylamide]
IC50 (Z138 cells): < 0.1 µM | IC50 (3T3 cells): 0.1 to 5 µM | IC50 (MS751 cells): < 0.1 µM

Nc1ccc(/C=C/C(=O)NCCOc2ccc(-c3cccc(C(=O)N4CCOCC4)c3)cc2Cl)cn1 [Compound 317, (E)-3-(6-aminopyridin-3-yl)-N-(2-(3-chloro-3′-(morpholine-4-carbonyl)biphenyl-4-yloxy)ethyl)acrylamide]
IC50 (Z138 cells): < 0.1 µM | IC50 (3T3 cells): > 10 µM | IC50 (MS751 cells): < 0.1 µM

CC(C)(O)c1ccc(-c2ccc(OCCNC(=O)/C=C/c3ccc(N)nc3)c(Cl)c2)s1 [Compound 319, (E)-3-(6-aminopyridin-3-yl)-N-(2-(2-chloro-4-(5-(2-hydroxypropan-2-yl)thiophen-2-yl)phenoxy)ethyl)acrylamide]
IC50 (Z138 cells): 0.1 to 5 µM | IC50 (3T3 cells): > 10 µM | IC50 (MS751 cells): 0.1 to 5 µM

CC(C)(O)c1ccc(-c2ccc(OCCNC(=O)/C=C/c3cccnc3)c(Cl)c2)s1 [Compound 320, (E)-N-(2-(2-chloro-4-(5-(2-hydroxypropan-2-yl)thiophen-2-yl)phenoxy)ethyl)-3-(pyridin-3-yl)acrylamide]
IC50 (Z138 cells): 0.1 to 5 µM | IC50 (3T3 cells): 5 to 10 µM | IC50 (MS751 cells): 0.1 to 5 µM

Nc1ccc(/C=C/C(=O)NCCOc2ccc(-c3ccc(C(=O)N4CCOCC4)nc3)cc2Cl)cn1 [Compound 321, (E)-3-(6-aminopyridin-3-yl)-N-(2-(2-chloro-4-(6-(morpholine-4-carbonyl)pyridin-3-yl)phenoxy)ethyl)acrylamide]
IC50 (Z138 cells): < 0.1 µM | IC50 (3T3 cells): > 10 µM | IC50 (MS751 cells): < 0.1 µM

CC(=O)c1ccc(-c2ccc(NCCNC(=O)/C=C/c3cccnc3)c(Cl)c2)s1 [Compound 322, (E)-N-(2-(4-(5-acetylthiophen-2-yl)-2-chlorophenylamino)ethyl)-3-(pyridin-3-yl)acrylamide]
IC50 (Z138 cells): 0.1 to 5 µM | IC50 (3T3 cells): > 10 µM | IC50 (MS751 cells): 0.1 to 5 µM

CC(=O)c1ccc(-c2ccc(OC(C)(C)CNC(=O)/C=C/c3cccnc3)c(Cl)c2)s1 [Compound 323, (E)-N-(2-(4-(5-acetylthiophen-2-yl)-2-chlorophenoxy)-2-methylpropyl)-3-(pyridin-3-yl)acrylamide]
IC50 (Z138 cells): 0.1 to 5 µM | IC50 (3T3 cells): > 10 µM | IC50 (MS751 cells): 5 to 10 µM

CN(C)C(=O)c1ccc(-c2ccc(OCCNC(=O)/C=C/c3ccc(N)nc3)c(Cl)c2)cc1 [Compound 325, (E)-4′-(2-(3-(6-aminopyridin-3-yl)acrylamido)ethoxy)-3′-chloro-N,N-dimethylbiphenyl-4-carboxamide]
IC50 (Z138 cells): 0.1 to 5 µM | IC50 (3T3 cells): > 10 µM | IC50 (MS751 cells): 0.1 to 5 µM

Nc1ccc(/C=C/C(=O)NCCOc2ccc(-c3ccc(C(=O)N4CCNCC4)cc3)cc2Cl)cn1 [Compound 326, (E)-3-(6-aminopyridin-3-yl)-N-(2-(3-chloro-4′-(piperazine-1-carbonyl)biphenyl-4-yloxy)ethyl)acrylamide]
IC50 (Z138 cells): < 0.1 µM | IC50 (3T3 cells): 0.1 to 5 µM | IC50 (MS751 cells): < 0.1 µM

CC(=O)c1ccc(-c2ccc(OCCNC(=O)/C=C\c3cccnc3)c(Cl)c2)s1 [Compound 327, (Z)—N-(2-(4-(5-acetylthiophen-2-yl)-2-chlorophenoxy)ethyl)-3-(pyridin-3-yl)acrylamide]
IC50 (Z138 cells): 0.1 to 5 µM | IC50 (3T3 cells): > 10 µM | IC50 (MS751 cells): 5 to 10 µM

Nc1ccc(/C=C/C(=O)NCCOc2ccc(-c3cnc(C(=O)N4CCOCC4)nc3)cc2Cl)cn1 [Compound 328, (E)-3-(6-aminopyridin-3-yl)-N-(2-(2-chloro-4-(2-(morpholine-4-carbonyl)pyrimidin-5-yl)phenoxy)ethyl)acrylamide]
IC50 (Z138 cells): 0.1 to 5 µM | IC50 (3T3 cells): > 10 µM | IC50 (MS751 cells): 0.1 to 5 µM

Source: patent US9994558B2, “Multicyclic compounds and methods of using same” (Karyopharm Therapeutics Inc., priority 2013, dated 2018)
